Experimental data taken from ChEMBL document CHEMBL4190279 (Eur J Med Chem, 2017).

Columns and labels:
SW1573 [1] = experiment: Potency index, ratio of 5-FU GI50 to compound GI50 for human SW1573 cells; assay type: functional
Cholinesterase [2] = target: T1, Cholinesterase (Equus caballus, UniProt P81908); experiment: Mixed-type inhibition of equine serum BuChE assessed as enzyme-substrate-inhibitor complex using p-nitrophenyl butyrate as substrate by Lineweaver-Burk plot analysis
SW1573 [3] = experiment: cells; details: Homo sapiens, SW1573, 48 h
Description: Antiproliferative activity against human SW1573 cells after 48 hrs by SRB assay

HeLa [4] = experiment: Potency index, ratio of cisplatin GI50 to compound GI50 for human HeLa cells; assay type: functional
HBL-100 [5] = experiment: cells; details: Homo sapiens, HBL-100, 48 h
Description: Antiproliferative activity against human HBL100 cells after 48 hrs by SRB assay

A549 [6] = experiment: Potency index, ratio of cisplatin GI50 to compound GI50 for human A549 cells; assay type: functional
[7] = GPx-like activity of the compound assessed as half life for H2O2 reduction by measuring oxidation of PhSH to (PhS)2 at 50 uM measured for 180 secs by spectrophotometric analysis relative to control; assay type: functional
[8] = Selectivity index, ratio of Ki for equine serum BuChE assessed as enzyme-substrate-inhibitor complex to Ki for electric eel AChE assessed as enzyme-substrate-inhibitor complex
Acetylcholinesterase [9] = target: T2, Acetylcholinesterase (Electrophorus electricus, UniProt O42275); experiment: Non-competitive inhibition of electric eel AChE assessed as enzyme-inhibitor complex using p-nitrophenyl acetate as substrate by Lineweaver-Burk plot analysis
T2 sequence (O42275 whole entry): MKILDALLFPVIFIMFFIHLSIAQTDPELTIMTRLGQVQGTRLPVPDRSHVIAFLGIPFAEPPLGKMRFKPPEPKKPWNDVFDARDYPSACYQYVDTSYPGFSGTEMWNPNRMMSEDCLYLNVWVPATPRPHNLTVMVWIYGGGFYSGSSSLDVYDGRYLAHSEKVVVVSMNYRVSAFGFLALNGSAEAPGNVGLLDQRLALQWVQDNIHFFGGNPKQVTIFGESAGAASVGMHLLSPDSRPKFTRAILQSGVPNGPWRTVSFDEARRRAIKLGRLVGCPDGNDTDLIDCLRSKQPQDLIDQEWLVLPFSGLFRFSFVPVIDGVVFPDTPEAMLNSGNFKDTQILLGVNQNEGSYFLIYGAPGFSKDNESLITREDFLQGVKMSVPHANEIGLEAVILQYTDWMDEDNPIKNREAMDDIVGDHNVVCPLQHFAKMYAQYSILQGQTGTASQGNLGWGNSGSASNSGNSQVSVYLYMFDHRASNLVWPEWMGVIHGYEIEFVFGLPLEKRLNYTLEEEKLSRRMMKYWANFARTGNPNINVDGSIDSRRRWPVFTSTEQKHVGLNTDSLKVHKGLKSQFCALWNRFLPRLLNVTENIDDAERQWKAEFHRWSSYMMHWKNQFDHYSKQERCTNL

HeLa [10] = experiment: cells; details: Homo sapiens, 48 h
Description: Antiproliferative activity against human HeLa cells after 48 hrs by SRB assay

HBL-100 [11] = experiment: Potency index, ratio of 5-FU GI50 to compound GI50 for human HBL100 cells; assay type: functional
T47D [12] = experiment: Potency index, ratio of 5-FU GI50 to compound GI50 for human T47D cells; assay type: functional
SW1573 [13] = experiment: Potency index, ratio of cisplatin GI50 to compound GI50 for human SW1573 cells; assay type: functional
T47D [14] = experiment: Potency index, ratio of cisplatin GI50 to compound GI50 for human T47D cells; assay type: functional
[15] = GPx-like activity of the compound assessed as velocity for H2O2 reduction by measuring oxidation of PhSH to (PhS)2 at 50 uM measured for 180 secs by spectrophotometric analysis; assay type: functional
T47D [16] = experiment: cells; details: Homo sapiens, 48 h
Description: Antiproliferative activity against human T47D cells after 48 hrs by SRB assay

HeLa [17] = experiment: Potency index, ratio of 5-FU GI50 to compound GI50 for human HeLa cells; assay type: functional
A549 [18] = experiment: cells; details: Homo sapiens, A549, 48 h
Description: Antiproliferative activity against human A549 cells after 48 hrs by SRB assay

[19] = GPx-like activity of the compound assessed as H2O2 reduction by measuring oxidation of PhSH to (PhS)2 at 50 uM measured for 180 secs by spectrophotometric analysis relative to control; assay type: functional
Acetylcholinesterase [20] = target: T2, Acetylcholinesterase; experiment: Non-competitive inhibition of electric eel AChE assessed as enzyme-substrate-inhibitor complex using p-nitrophenyl acetate as substrate by Lineweaver-Burk plot analysis
in vitro = details: human, hTERT-BJ cells
Description: Antiproliferative activity against human hTERT-BJ cells after 48 hrs by SRB assay

WiDr [21] = experiment: cells; details: Homo sapiens, 48 h
Description: Antiproliferative activity against human WiDr cells after 48 hrs by SRB assay

Cholinesterase [22] = target: T1, Cholinesterase; experiment: Mixed-type inhibition of equine serum BuChE assessed as enzyme-inhibitor complex using p-nitrophenyl butyrate as substrate by Lineweaver-Burk plot analysis
HBL-100 [23] = experiment: Potency index, ratio of cisplatin GI50 to compound GI50 for human HBL100 cells; assay type: functional
WiDr [24] = experiment: Potency index, ratio of 5-FU GI50 to compound GI50 for human WiDr cells; assay type: functional
WiDr [25] = experiment: Potency index, ratio of cisplatin GI50 to compound GI50 for human WiDr cells; assay type: functional
Acetylcholinesterase [26] = target: T2, Acetylcholinesterase; experiment: Uncompetitive inhibition of electric eel AChE assessed as enzyme-substrate-inhibitor complex using p-nitrophenyl acetate as substrate by Lineweaver-Burk plot analysis
[27] = Selectivity index, ratio of GI50 for human hTERT-BJ cells to GI50 for human WiDr cells; assay type: toxicity; details: hTERT-BJ cells versus WiDr cells, read-out: RatioGI50
Cholinesterase [28] = target: T1, Cholinesterase; experiment: Non-competitive inhibition of equine serum BuChE assessed as enzyme-substrate-inhibitor complex using p-nitrophenyl butyrate as substrate by Lineweaver-Burk plot analysis
Cholinesterase [29] = target: T1, Cholinesterase; experiment: Non-competitive inhibition of equine serum BuChE assessed as enzyme-inhibitor complex using p-nitrophenyl butyrate as substrate by Lineweaver-Burk plot analysis
[30] = target: Amyloid-beta precursor protein (Homo sapiens) (UniProt P05067); experiment: Inhibition of amyloid beta (1 to 42) (unknown origin) self aggregation at 50 uM relative to control
Amyloid-beta precursor protein (Homo sapiens), sequence (P05067 whole entry): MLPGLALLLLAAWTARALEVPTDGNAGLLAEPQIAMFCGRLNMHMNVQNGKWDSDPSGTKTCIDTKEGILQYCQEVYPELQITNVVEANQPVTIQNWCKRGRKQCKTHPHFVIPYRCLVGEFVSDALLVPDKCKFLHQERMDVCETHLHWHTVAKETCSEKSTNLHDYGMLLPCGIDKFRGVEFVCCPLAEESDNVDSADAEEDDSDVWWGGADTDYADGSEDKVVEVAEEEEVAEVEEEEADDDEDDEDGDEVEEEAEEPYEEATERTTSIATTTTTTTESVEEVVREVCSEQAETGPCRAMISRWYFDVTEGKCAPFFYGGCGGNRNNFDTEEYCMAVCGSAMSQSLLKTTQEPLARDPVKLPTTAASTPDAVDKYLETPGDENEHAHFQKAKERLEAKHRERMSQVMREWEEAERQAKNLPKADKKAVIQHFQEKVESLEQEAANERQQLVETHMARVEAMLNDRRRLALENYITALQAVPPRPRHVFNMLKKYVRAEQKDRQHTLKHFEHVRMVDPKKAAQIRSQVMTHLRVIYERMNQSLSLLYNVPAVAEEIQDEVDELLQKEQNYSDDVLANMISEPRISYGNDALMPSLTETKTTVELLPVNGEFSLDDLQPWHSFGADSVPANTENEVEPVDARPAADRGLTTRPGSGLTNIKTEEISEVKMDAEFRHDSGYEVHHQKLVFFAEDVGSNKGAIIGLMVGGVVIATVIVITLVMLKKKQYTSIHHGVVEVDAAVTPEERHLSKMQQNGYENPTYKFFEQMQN

Acetylcholinesterase [31] = target: T2, Acetylcholinesterase; experiment: Mixed-type inhibition of electric eel AChE assessed as enzyme-inhibitor complex using p-nitrophenyl acetate as substrate by Lineweaver-Burk plot analysis
Acetylcholinesterase [32] = target: T2, Acetylcholinesterase; experiment: Mixed-type inhibition of electric eel AChE assessed as enzyme-substrate-inhibitor complex using p-nitrophenyl acetate as substrate by Lineweaver-Burk plot analysis
Acetylcholinesterase [33] = target: T2, Acetylcholinesterase; experiment: Competitive inhibition of electric eel AChE assessed as enzyme-inhibitor complex using p-nitrophenyl acetate as substrate by Lineweaver-Burk plot analysis
[34] = Potency index, ratio of compound velocity to ebselen velocity for GPx-like activity assessed as H2O2 reduction by measuring oxidation of PhSH to (PhS)2; assay type: functional
[35] = Potency index, ratio of compound velocity to diphenyl diselenide velocity for GPx-like activity assessed as H2O2 reduction by measuring oxidation of PhSH to (PhS)2; assay type: functional
Cholinesterase [36] = target: T1, Cholinesterase
Description: Competitive inhibition of equine serum BuChE assessed as enzyme-inhibitor complex using p-nitrophenyl butyrate as substrate by Lineweaver-Burk plot analysis

N2a = experiment: Cytotoxicity against mouse N2A cells assessed as reduction in cell viability at 50 uM after 24 hrs by MTT assay; assay type: cell-based
[37] = target: Amyloid-beta precursor protein (Homo sapiens) (UniProt P05067); experiment: Inhibition of amyloid beta (1 to 42) (unknown origin) self aggregation at 50 uM after 24 hrs by ThT-based fluorometric method relative to control
Acetylcholinesterase [38] = target: T3, Acetylcholinesterase (Homo sapiens, UniProt P22303); experiment: Inhibition of human serum AChE using acetylthiocholine iodide as substrate preincubated for 20 mins followed by substrate addition measured after 5 mins by Ellman's method
T3 sequence (P22303 whole entry): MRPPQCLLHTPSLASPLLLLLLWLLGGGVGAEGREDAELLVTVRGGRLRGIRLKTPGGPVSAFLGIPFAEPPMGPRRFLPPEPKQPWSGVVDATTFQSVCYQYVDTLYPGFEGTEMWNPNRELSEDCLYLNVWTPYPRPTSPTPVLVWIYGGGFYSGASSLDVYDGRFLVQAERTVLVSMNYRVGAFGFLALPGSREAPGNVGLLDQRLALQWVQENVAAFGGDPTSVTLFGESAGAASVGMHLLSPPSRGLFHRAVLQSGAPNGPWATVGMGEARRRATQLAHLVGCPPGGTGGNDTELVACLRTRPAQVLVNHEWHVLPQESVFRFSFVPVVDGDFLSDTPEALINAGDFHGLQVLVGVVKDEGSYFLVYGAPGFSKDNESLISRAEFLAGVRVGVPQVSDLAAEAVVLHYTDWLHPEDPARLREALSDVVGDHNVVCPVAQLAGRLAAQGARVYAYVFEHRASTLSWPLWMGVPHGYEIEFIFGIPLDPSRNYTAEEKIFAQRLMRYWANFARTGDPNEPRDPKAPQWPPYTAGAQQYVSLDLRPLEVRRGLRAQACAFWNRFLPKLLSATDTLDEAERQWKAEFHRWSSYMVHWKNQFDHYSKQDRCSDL

Acetylcholinesterase [39] = target: T3, Acetylcholinesterase; experiment: Potency index, ratio of cystamine-tacrine IC50 to compound IC50 for human AChE

T1 sequence (P81908 whole entry): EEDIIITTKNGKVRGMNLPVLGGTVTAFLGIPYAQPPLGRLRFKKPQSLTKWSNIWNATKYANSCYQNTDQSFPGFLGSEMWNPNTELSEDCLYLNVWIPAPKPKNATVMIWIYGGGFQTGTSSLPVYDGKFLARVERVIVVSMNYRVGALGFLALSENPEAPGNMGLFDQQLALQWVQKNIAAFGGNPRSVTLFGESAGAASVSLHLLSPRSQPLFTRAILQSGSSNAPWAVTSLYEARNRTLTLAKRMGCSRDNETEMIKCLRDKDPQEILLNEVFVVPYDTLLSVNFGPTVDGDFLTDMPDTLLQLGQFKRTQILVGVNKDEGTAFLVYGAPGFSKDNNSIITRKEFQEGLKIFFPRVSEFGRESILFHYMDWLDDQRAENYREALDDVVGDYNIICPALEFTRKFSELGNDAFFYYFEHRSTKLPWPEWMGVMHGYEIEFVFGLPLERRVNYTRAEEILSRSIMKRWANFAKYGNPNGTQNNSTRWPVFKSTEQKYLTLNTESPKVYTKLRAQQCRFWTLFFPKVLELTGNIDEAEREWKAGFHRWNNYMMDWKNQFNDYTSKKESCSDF

| SMILES | GI50 (SW1573 [3]) | GI50 (HBL-100 [5]) | T1/2 [7] | Ratio Ki [8] | GI50 (HeLa [10]) | Activity [15] | GI50 (T47D [16]) | GI50 (A549 [18]) | fold change (FC) [19] | GI50 at 48 h (in vitro) | GI50 (WiDr [21]) | other results |
| --- | --- | --- | --- | --- | --- | --- | --- | --- | --- | --- | --- | --- |
| c1ccc2c(NCCCCCCSSCCCCCCNc3c4c(nc5ccccc35)CCCC4)c3c(nc2c1)CCCC3 | 240 nM | 990 nM | 1.27 h | 4.7 | 330 nM | 32.8 µM/min | 370 nM | 1100 nM | 4.2 | 220 nM | 200 nM | RatioGI50 (SW1573 [1]): <=306; Ki (Cholinesterase [2]): 70 nM; RatioGI50 (HeLa [4]): <=162; RatioGI50 (A549 [6]): <=162; Ki (Acetylcholinesterase [9]): 14.8 nM; RatioGI50 (HBL-100 [11]): <=306; RatioGI50 (T47D [12]): <=306; RatioGI50 (SW1573 [13]): <=162; RatioGI50 (T47D [14]): <=162; RatioGI50 (HeLa [17]): <=306; Ki (Acetylcholinesterase [20]): 14.8 nM; Ki (Cholinesterase [22]): 243 nM; RatioGI50 (HBL-100 [23]): <=162; RatioGI50 (WiDr [24]): <=306; RatioGI50 (WiDr [25]): <=162 |
| c1ccc([Se]CCCCCCNc2c3c(nc4ccccc24)CCCC3)cc1 | 1100 nM | 2000 nM | 2.13 h | 7.1 | 1200 nM | 19.6 µM/min | 660 nM | 860 nM | 2.5 | 2400 nM | 890 nM | Ki (Acetylcholinesterase [26]): 8 nM; selectivity ratio [27]: ≤ 4.7; Ki (Cholinesterase [28]): 57 nM; Ki (Cholinesterase [29]): 57 nM |
| c1ccc2c(NCCSSCCNc3c4c(nc5ccccc35)CCCC4)c3c(nc2c1)CCCC3 | – | – | – | – | – | – | – | – | – | – | – | inhibition [30]: 66.3% |
| c1ccc2c(NCCCCCCCNc3c4c(nc5ccccc35)CCCC4)c3c(nc2c1)CCCC3 | – | – | – | – | – | – | – | – | – | – | – | inhibition [30]: 71.1% |
| O=C(C[Se]c1ccccc1)Nc1c2c(nc3ccccc13)CCCC2 | > 100000 nM | 35000 nM | 11.6 h | 0.5 | 32000 nM | 3.6 µM/min | 53000 nM | 37000 nM | 0.5 | – | > 100000 nM | Ki (Cholinesterase [2]): 1710 nM; Ki (Acetylcholinesterase [31]): 8420 nM; Ki (Cholinesterase [22]): 518 nM; Ki (Acetylcholinesterase [32]): 3540 nM |
| N#CSCCCCCCNc1c2c(nc3ccccc13)CCCC2 | 5100 nM | 11000 nM | 1.93 h | – | 8100 nM | 21.6 µM/min | 5500 nM | 8300 nM | 2.8 | – | 2400 nM | Ki (Cholinesterase [2]): 673 nM; Ki (Acetylcholinesterase [33]): 18.5 nM; Ki (Cholinesterase [22]): 252 nM |
| COc1ccc(NC(=[Se])NCCCCCCNc2c3c(nc4ccccc24)CCCC3)cc1 | – | – | 0.503 h | 1.1 | – | 82.9 µM/min | – | – | 10.6 | – | – | Ratio [34]: 41.4; Ki (Cholinesterase [28]): 28.6 nM; Ki (Acetylcholinesterase [9]): 26.6 nM; Ratio [35]: 5.6; Ki (Cholinesterase [29]): 28.6 nM; Ki (Acetylcholinesterase [20]): 26.6 nM |
| O=c1[nH]cc(F)c(=O)[nH]1 [FLUOROURACIL] | 4300 nM | 5500 nM | – | – | 15000 nM | – | 47000 nM | – | – | 5500 nM | 49000 nM | – |
| Cc1ccc(NC(=[Se])NCCCCCCNc2c3c(nc4ccccc24)CCCC3)cc1 | 3700 nM | 8100 nM | 1.41 h | – | 4100 nM | 29.6 µM/min | 3000 nM | 5500 nM | 3.8 | – | 2200 nM | Ki (Cholinesterase [28]): 10.7 nM; Ki (Cholinesterase [29]): 10.7 nM; Ki (Acetylcholinesterase [33]): 7.6 nM |
| c1ccc([Se][Se]c2ccccc2)cc1 | – | – | 2.81 h | – | – | 14.8 µM/min | – | – | 1.9 | – | – | – |
| N#CSCCCCCNc1c2c(nc3ccccc13)CCCC2 | 15000 nM | 15000 nM | 1.8 h | – | 11000 nM | 23.1 µM/min | 8300 nM | 14000 nM | 3 | – | 4100 nM | Ki (Acetylcholinesterase [9]): 50.1 nM; Ki (Acetylcholinesterase [20]): 50.1 nM; Ki (Cholinesterase [36]): 228 nM |
| O=c1c2ccccc2[se]n1-c1ccccc1 | – | – | 20.8 h | – | – | 2 µM/min | – | – | 0.3 | – | – | – |
| N#C[Se]CCCCCNc1c2c(nc3ccccc13)CCCC2 | 650 nM | 1100 nM | 1.86 h | – | 370 nM | 22.4 µM/min | 700 nM | 1200 nM | 2.9 | 360 nM | 650 nM | Ki (Acetylcholinesterase [33]): 34.5 nM; Ki (Cholinesterase [36]): 206 nM |
| c1ccc2c(NCCCCCSSCCCCCNc3c4c(nc5ccccc35)CCCC4)c3c(nc2c1)CCCC3 | 290 nM | 1200 nM | 1.17 h | 74 | 1000 nM | 35.5 µM/min | 950 nM | 1400 nM | 4.6 | 1400 nM | 300 nM | RatioGI50 (SW1573 [1]): <=306; Ki (Cholinesterase [2]): 422 nM; Activity (N2a): Non-Toxic; RatioGI50 (HeLa [4]): <=162; inhibition [37]: 61.8%; RatioGI50 (A549 [6]): <=162; selectivity ratio [27]: ≤ 4.7; RatioGI50 (HBL-100 [11]): <=306; Ki (Acetylcholinesterase [31]): 3.1 nM; RatioGI50 (T47D [12]): <=306; RatioGI50 (SW1573 [13]): <=162; RatioGI50 (T47D [14]): <=162; RatioGI50 (HeLa [17]): <=306; IC50 (Acetylcholinesterase [38]): 1.62 nM; Ki (Cholinesterase [22]): 166 nM; RatioGI50 (HBL-100 [23]): <=162; RatioGI50 (WiDr [24]): <=306; RatioGI50 (WiDr [25]): <=162; Ratio IC50 (Acetylcholinesterase [39]): 3; Ki (Acetylcholinesterase [32]): 5.7 nM |
